Experimental data as given in patent publication US5856115A, “Assay for identification therapeutic agents” (priority 1994, dated 1999).

Tests used:
[1] = system: phosphatidic acid phosphohydrolase (PAPH); test: Inhibition of PAPH shown by the invention assay; assay type: cell-based, human
Method: (§1) This example also illustrates the method of the invention.
(§2) Human glomerular mesangial cells were incubated with IL-1 for various time periods of 5-60 seconds and the cells were fixed in ice-cold methanol, and the lipids extracted using chloroform:methanol 2:1 (v/v). It is very important that the fixing/extraction process be conducted quickly so that the decomposition of unstable intermediates is halted.
(§3) The extracts were subjected to HPLC on a Rainin mu-Porasil column with a 3:4 hexane:propanol organic carrier and a 1-10% water gradient during the first 10 minutes of separation. The relative concentration of each lipid species is determined using absorption at 206 nm (A206), which follows unsaturated acyl content of lipid species. […] The absolute mass of each lipid species is determined by isolation of the lipid using a fraction collector, repurification on the HPLC column. Determination of phospholipid phosphorus is as nmoles/mg cellular protein. Protein concentration is determined using the Bradford technique.
(§4) Thus, the lyso PA that accumulates contains high levels of unsaturated fatty acids. Pentoxifylline in a dose range greater than 500 μM results in inhibition both of phosphatidate phosphohydrolase and of lyso PA acyl transferase.

[2] = system: lyso-PA acyl transferase (LPAAT); test: Inhibition of LPAAT shown by the invention assay; assay type: cell-based, human
Method: as §1, §2, §3, §4

[3] = system: NIH3T3 cell line (D5C3) transformed with temperature-sensitive v-abl; test: Blocking transformed phenotype of D5C3 cells; assay type: cell-based, murine
[4] = system: Human glomerular mesangial cells stimulated with IL-1; test: Invention assay: HPLC of lipids (PA, DAG) from mesangial cells stimulated with IL-1; assay type: cell-based
Method: The compounds of Formula I are shown to modulate the effects of primary stimuli which elevate levels of the relevant subspecies of PA and DAG using the assay system of the invention. In general for the assay, the cells to be tested are first incubated with the primary stimulating agent for various time periods and fixed in ice-cold methanol. The lipids are extracted using, for example, chloroform:methanol 2:1 (v/v), and the extracts are then subjected to HPLC as described by Bursten and Harris, Biochemistry (1991). In this method, a Rainin mu-Porasil column is used with a 3:4 hexane:propanol organic carrier and a 1-10% water gradient during the first 10 minutes of separation. Detection of the peaks in the elution pattern is by absorption in the range of ultraviolet which detects isolated double bonds. Thus, the relevant peaks of unsaturated PA and DAG are shown in the elution pattern. It is important to note that the assay method permits discrimination between various forms of PA and DAG so that those relevant to the pathway affected by the compounds of Formula I can be measured directly. Confirmation of the nature of the acyl substituents of these components is accomplished using fast-atom bombardment mass spectroscopy. Thus, the relevant unsaturated (non-arachidonic) PA and DAG subspecies may be detected. The time periods employed are 5-60 seconds after stimulation with the primary stimulus, such as a cytokine. This technique permits assessment of the levels of various lipid components as a function of time.
To test the effect of the compounds of the invention, the candidate compound is included in the initial incubation at various concentrations. Fixing, extraction and HPLC are conducted as above. The effect of the candidate compound is then reflected in a lowering of the relevant PA and DAG levels as compared to the cells without candidate in the control as illustrated hereinbelow.
as §2, §3
After contacting HMC with 10^-11 M interleukin-1, a marked redistribution of phospholipids and metabolites is apparent within 5 seconds (FIG. 2), including a significant increase in PA and DAG. FIGS. 3 and 4 show the HPLC after stimulation with IL-1 for 15 seconds and 60 seconds, respectively. PA has been converted into DAG by action of phosphatidate phosphohydrolase at 15 seconds; but the PA peak reappears after 60 seconds.
The HMC were also reacted with 10^-11 M IL-1 in the presence of various concentrations of pentoxifylline. […] A large peak representing pentoxifylline is present.

CD3-positive lymphocytes = test: Proliferation and transcripts of anti-CD3 stimulated lymphocytes; assay type: cell-based
Method: In these experiments, freshly isolated, CD2-positive cells were stimulated by a solid-phase monoclonal antibody to acquire a CD3 phenotype, and then PTX was added. […] The block in proliferation could not be overcome by addition of either tumor necrosis factor (FIGS. 20 and 21) or IL-1 (FIG. 21). […] The cytokines and PTX were added at culture inception and the cells were harvested after 5 days.

[5] = system: IL-6 transcripts in bone marrow stromal cells; test: Northern blot of IL-6 transcripts in bone marrow stromal cells; assay type: cell-based; details: three-hour exposure, increasing concentrations
[6] = system: NIH3T3 murine fibroblast cells transformed with a mutated K-ras; test: Growth and soft agar colonies of K-ras transformed NIH3T3 cells in vitro; assay type: cell-based; details: concentrations at or greater than 0.5 mM
Method: Additionally, NIH3T3 murine fibroblast cells transformed with a mutated K-ras (codon 12 Gly-Val) were tested in vitro and in nude mice.

[7] = system: human leukemic cell line (Mo7e); test: GM-CSF stimulated colony formation of Mo7e cells; assay type: cell-based; details: semisolid medium, colonies counted after 10 days
Method: The human leukemic cell line (Mo7e) is dependent on added granulocyte-macrophage colony-stimulating factor (GM-CSF) for growth. Mo7e cells were cultured in semisolid medium with and without pentoxifylline (PTX) and rhGM-CSF. Colonies were counted 10 days after culture initiation under an inverted microscope. […] PTX thus prevents the up-regulation of activation-associated genes which inhibit proliferation.

[8] = system: SV40 T-antigen-transformed human kidney mesangial cells; test: Tritiated thymidine uptake of transformed mesangial cells with rhIL-1 or TNFα; assay type: cell-based
Method: SV40 T-antigen-transformed human kidney mesangial cells were cultured under standard conditions with rhIL-1 or with TNFα with and without pentoxifylline (PTX). Transformed mesangial cells grow independently of added growth factors, but IL-1 and TNFα are the normal proliferative signals for mesangial cells. As was shown in Example 1, when IL-1 is added to kidney mesangial cells, within 30 seconds LPAAT and PAPH are activated; the effect of both of these enzymes is inhibited by pentoxifylline at 1 mM. In this experiment, the growth of the treated cells was measured using tritiated thymidine uptake.

[9] = system: Steel factor transcripts in marrow stromal cell lines; test: Northern blot of Steel factor transcripts in marrow stromal cell lines; assay type: cell-based; details: three-hour incubation, passaged or cloned (CDCL) lines
[10] = system: IL-8 mRNA in U937 and THP1; test: Northern blot of IL-8 mRNA in monocytic cell lines induced by lipopolysaccharide or GM-CSF; assay type: cell-based
Method: The murine fibrosarcoma cell line, L929, was also tested as an indicator for assays of TNF cytotoxicity. Cell growth was assayed by crystal violet staining using optical density as a measure of growth. […] Finally, two monocytic cell lines, U937 and THP1, were used to test the effect of pentoxifylline on the […] of the cytokine IL-8. The cell lines in culture were induced to upregulate IL-8 production by lipopolysaccharide or GM-CSF.

[11] = system: TNFα transcripts in U937 cells; test: Northern blot of TNFα transcripts in LPS-induced U937 cells; assay type: cell-based; details: 1 mM PTX, LPS three hours
T cell proliferation = details: Singer et al., cited from earlier work
[12] = system: recipients of matched allogeneic donor marrow; test: Matched allogeneic donor trial; assay type: in vivo, human
Description: (§5) They are given steroids to reduce inflammation. […] In this group of patients, GVHD approaches 90%.
Again, engraftment was improved, toxicity diminished and survival improved as compared either to standard treatment or to treatment with GM-CSF.

[13] = system: patients undergoing allogeneic bone marrow transplant; test: Preliminary study in allogeneic bone marrow transplant patients; assay type: in vivo, human; details: first 30 days post-transplant
Method: A preliminary study was conducted on patients undergoing allogeneic bone marrow transplant for multiple myeloma, for lymphoid malignancies, or for advanced stage CML or AML. Prednisone is often administered as an immunosuppressant in all experimental groups. In the study, these patients received the drugs for a minimum of 3 days to a maximum of 7 days prior to starting their preparative regimen while in the outpatient department according to the following regimen:
PTX: 600 mg p.o. qid at 9 am, 1 pm, 5 pm and 9 pm;
CIPRO: 500 mg p.o.b.i.d.; and
PD: 0.5 mg/kg b.i.d. (total 1 mg/kg/day changed to methylprednisolone at an equivalent dose starting on day-1).
For the duration of therapy, the patients are continued on the study drugs as follows:
PTX: until day +20 post-transplant then tapered 600 mg/day until off;
CIPRO: until day 30 post-transplant or day of discharge if sooner than day 30; and
PD: tapered starting on day 0 over 14 days until off.
All patients in these studies received PD and cyclosporin as GVHD prophylaxis.

[14] = system: recipients of marrow from unrelated donors; test: Unrelated donor trial; assay type: in vivo, human
Description: as §5
Again, the general results were improved as compared to either standard therapy or GM-CSF.

[15] = day 0-28, median (mean ± standard deviation)
[16] = days 0-28, median (mean ± standard deviation)
[17] = median (mean ± standard deviation)

## C[C@@H](O)CCCCn1c(=O)c2c(ncn2C)n(C)c1=O [CT1501 R]
[1]
  block of Ptd Phydr: blocks
[2]
  block of lyso-PA AT: blocks

## O=C(O)c1cn(C2CC2)c2cc(N3CCNCC3)c(F)cc2c1=O [Ciprofloxacin]
[3]; ciprofloxacin 50 μg/ml, pentoxifylline 1 mM
  inhibition of the transformed phenotype: significant effect

## CC(=O)CCCCn1c(=O)c2c(ncn2C)n(C)c1=O [Pentoxifylline]
[4]; 1 mM, all time points (15-60 seconds)
  elevation of PA and DAG by IL-1: abolishes
[4]; 10^-11 M IL-1, 100 μM pentoxifylline, 15- and 60-second points
  cyclical formation of PA, and conversion of PA to DAG: no change
[4]; 10^-11 M IL-1, 500 μM pentoxifylline, 15 second time point
  conversion of PA to DAG: slight attenuation
[4]; IL-1 stimulation, concentrations greater than 500 μM
  elevation in levels of unsaturated, non-arachidonic PA and of the DAG derived from it: obviate
CD3-positive lymphocytes; CD2-positive T-cells, monoclonal antibody 64.1, 5 days, FIG. 21
  thymidine uptake: diminished
CD3-positive lymphocytes; Northern blot, FIG. 19A
  TNF transcripts: suppression
CD3-positive lymphocytes; Northern blot, FIG. 19C
  IL-2 receptor transcripts: suppression
[5]
  production of IL-6 transcripts: increased production
[6]; in vitro
  growth: inhibition of growth
[6]; soft agar
  anchorage-independent growth: suppression
[7]
  GM-CSF-stimulated growth of colonies: enhanced
[3]; 1 mM, 33° C., 5 days
  appearance of cells: predominantly non-transformed, fibroblastic appearance
[1]; 1 mM
  PAPH activated by IL-1: inhibited
[1]; dose range greater than 500 μM
  inhibition of phosphatidate phosphohydrolase: inhibition
[2]; 1 mM
  LPAAT activated by IL-1: inhibited
[2]; dose range greater than 500 μM
  inhibition of lyso PA acyl transferase: inhibition
[2]; relative to 0.5 mM
  inhibitory effect on LPAAT: evident only at higher concentrations
[8]; FIG. 13A
  growth stimulated by IL-1: arrested growth
[8]; FIG. 13B
  proliferative effect of TNF: enhances
[9]
  levels of Steel factor transcripts: increases
[10]
  synthesis of IL-8 (mRNA): did not inhibit
[11]
  TNF RNA obtained in response to LPS stimulation: undetectable level
T cell proliferation; MLR-stimulated lymphocytes
  expression of cell surface antigens (HLA-DR, CD71, CD25, CD69): decreased
T cell proliferation; PTX added after triggering lymphocytes in a mixed lymphocyte culture
  blocking a proliferative response: still effective

## Cc1nc2sccn2c(=O)c1CCN1CCC(=C(c2ccccc2)c2ccc(F)cc2)CC1 [R 50922]
[4]; IL-1 stimulation
  HPLC pattern (reappearance of PA after 60 seconds): does not alter

## GM-CSF: granulocyte-macrophage colony-stimulating factor
[12]
  Day 100 Survival: 69%
[12]; [15]
  Max Creat: 1.5 (1.8 ± 1.4) mg/dL
  Units platelets transfused: 74.0 (87 ± 74) units
[12]; days 0-28
  Bili ≥5.0 mg/dL (patients): 44%
  Creat ≥2.0 mg/dL (patients): 22%
  Infection 0-28 (patients with positive bacterial blood cultures): 14%
[12]; [16]
  Max Bili: 5.0 (8 ± 10) mg/dL
[12]; [17]
  ANC ≤100 (days below 100 cells/uL): 5.0 (6 ± 4) days
  ANC ≥100 (day on which ANC ≥100 cells/uL on two consecutive days): 9.0 (8 ± 6) day
  ANC ≥1,000 (day on which ANC ≥1,000 cells/uL on two consecutive days): 14.0 (16 ± 9) day
  Day discharge: 24.0 (26 ± 13) day
  Last RBC day (first day RBC count ≥30% for 7 consecutive days untransfused): 59.0 (63 ± 39) day
  Last plt day: 23.0 (17 ± 11) day
[13]
  platelet transfusion requirements: 87±69 units of platelets
  red blood cell requirements: 24.7±24 units of RBCs
[14]; [15]
  Max Creat: 1.1 (1.4 ± 1.2) mg/dL
  Units platelets transfused: 92.0 (90 ± 42) units
[14]; days 0-28
  Bili ≥5.0 mg/dL (patients): 46%
  Creat ≥2.0 mg/dL (patients): 17%
  Infection 0-28: 7%
[14]; [16]
  Max Bili: 5.5 (7 ± 7) mg/dL
[14]; [17]
  ANC ≤100 (days below 100 cells/uL): 12 (12 ± 7) days
  ANC ≥100: 18.5 (18 ± 6) day
  ANC ≥500: 22.5 (23 ± 4) day
  ANC ≥1,000: 26.0 (26 ± 5) day
  Day initial discharge: 37.0 (37 ± 14) day
  Last plt day: 24.5 (26 ± 6) day
